From patent EP4667482A1, “SALT OF DIPEPTIDE COMPOUND, PREPARATION METHOD THEREFOR, AND USE THEREOF” (Zhejiang Huahai Pharmaceutical Co., Ltd., priority 2023, dated 2024)
In brackets after ≈: the same amount, converted by molar mass. Structures can show the parent of a compound that is named as a salt. Where two headings read alike, the source gives them in different places.

Tests used:
[1] = tested on: Rats model of deep vein thrombosis; experiment: Rat model of deep vein thrombosis (thrombus weight); type: in vivo, SD rats
Source text: Experimental animals: SD rats (body weight 220 to 250 g, sex: male)
The thrombus was removed and weighed.

[2] = Blood drug level in the rat deep vein thrombosis model
Method: Preparation of solution: An appropriate amount of Form I was weighed, dissolved in a vehicle (0.5% (W/V) Natrosol™ 250 HX solution containing 0.1% (W/V) L(+)-tartaric acid) to formulate into the required concentration and then stirred uniformly, so that the drug was administered according to the predetermined dose.
Procedure: Rats were acclimatized for 3 days and randomly divided into three groups: model group, positive control group/subject group and bridging group, with 8 to 10 rats in each group. […] Rats in each group were anesthetized with urethane (20%, 5 mL/kg) via intraperitoneal injection. The abdominal cavity was exposed, the vena cava was bluntly separated, and two surgical sutures of 8 to 10 cm in length were placed under the blood vessels, both 1 cm apart. When the modeling time of each group was reached, rabbit thromboplastin (0.02 mg/kg) was injected into the left femoral vein, and the two sutures were knotted 10 s later, and the knotted portion of the suture was cut with ophthalmic scissors after 1 h. The thrombus was removed and weighed.

[3] = Stability at room temperature (10 days); type: physicochemical
[4] = Moisture adsorption / hygroscopicity (DVS); type: physicochemical; settings: for Hygroscopicity: result in words
Solubility determination = type: physicochemical
[5] = Method: Experimental animals: SD rats (body weight 200 to 300 g, sex: half of male and half of female)
The doses of 5, 10 and 20 mg/kg were administered by gavage, and blood was collected from the jugular vein at 5 min, 10 min, 20 min, 30 min, 1 h, 2 h, 4 h, 6 h, 8 h, 12 h and 24 h after the administration of the drug, processed, and analyzed for blood drug level by LC-MS/MS.
Data were processed using Phoenix WinNonlin 6.4 non-compartmental model to calculate the pharmacokinetic parameters of rats after drug administration, including t1/2, AUC0-t, AUC0-∞, Cl/F or Clss/F or Cl, Vz/F or Vss, MRT, Cmax, C5min, Tmax, and Cmin, Cavg, and AUC0-τ for multiple administrations to reach steady state, etc.

[6] = Accelerated stability test at 25 ± 2 °C, 60 ± 5% humidity; type: physicochemical
Method: The accelerated stability test data of the Form I at T = 25 ± 2 °C, 60 ± 5% humidity are as follows: […]

[7] = 0.1 mg/kg/h, intravenous infusion

## CC(C)C[C@@H](NCC(=O)O)C(=O)N1CCC[C@H]1C(=O)NCc1ccc(C(=N)N)cc1 [Compound V]
[1]; [7]
  Thrombosis inhibition rate (%): 48.2%
  Thrombus weight: 36.8 ± 6.6 mg
[1]; intravenous infusion of 0.1 mg/kg/h in rats
  antithrombotic effect compared with oral administration of 5 mg/kg Form I: comparable
[2]; intravenous infusion of 0.1 mg/kg/h compound V
  Blood drug level: 174.2 ± 51.8 ng/mL

## CCCCCCOC(=O)N=C(N)c1ccc(NCc2nc3cc(C(=O)N(CCC(=O)OCC)c4ccccn4)ccc3n2C)cc1 [Dabigatran etexilate, reference compound]
[1]; 5 mg/kg, oral gavage
  Thrombosis inhibition rate (%): 69.9%
  Thrombus weight: 21.4 ± 8.2 mg

## CCCCCCOC(=O)NC(=N)c1ccc(CNC(=O)[C@@H]2CCCN2C(=O)[C@@H](CC(C)C)NCC(=O)OCC)cc1 [Form B of the monohydrochloride]
[3]
  Stability at room temperature (10 days): White powder, crystalline form remains unchanged (10 days)
[4]
  Moisture adsorption content (wt%): 3.0 wt%
  Hygroscopicity: Hygroscopic

## CCCCCCOC(=O)NC(=N)c1ccc(CNC(=O)[C@@H]2CCCN2C(=O)[C@@H](CC(C)C)NCC(=O)OCC)cc1 [Form I]
Solubility determination; AC (Acetic acid)
  Solubility: >250 mg/mL
Solubility determination; ACN
  Solubility: >250 mg/mL
Solubility determination; DMSO
  Solubility: >250 mg/mL
Solubility determination; Diox
  Solubility: ~125 mg/mL (≈ 218 mM)
Solubility determination; EA
  Solubility: <0.3 mg/mL
Solubility determination; EtOH
  Solubility: >250 mg/mL
Solubility determination; Hept
  Solubility: <0.3 mg/mL
Solubility determination; IPA
  Solubility: ~167 mg/mL (≈ 291 mM)
Solubility determination; MEK
  Solubility: ~1.6 mg/mL (≈ 2.79 mM)
Solubility determination; MTBE
  Solubility: <0.3 mg/mL
Solubility determination; NBA
  Solubility: ~167 mg/mL (≈ 291 mM)
Solubility determination; THF
  Solubility: ~11.1 mg/mL (≈ 19.3 mM)
Solubility determination; Tol
  Solubility: <0.3 mg/mL
Solubility determination; Water
  Solubility: >250 mg/mL
Solubility determination; acetonitrile and dichloromethane
  Solubility: readily soluble
Solubility determination; buffer solutions with different pH values (1.2 to 13.0)
  Solubility: Highly soluble
Solubility determination; n-heptane and N, N-diisopropyl ethylamine
  Solubility: almost insoluble or insoluble
[1]; 2.5 mg/kg, oral gavage
  Thrombosis inhibition rate (%): 27.0%
  Thrombus weight: 51.9 ± 8.3 mg
[1]; 5 mg/kg, oral gavage
  Thrombosis inhibition rate (%): 54.7%
  Thrombus weight: 32.1 ± 5.7 mg
[1]; 10 mg/kg, oral gavage
  Thrombus weight: 21.3 ± 5.1 mg
[1]; 20 mg/kg, oral gavage
  Thrombosis inhibition rate (%): 79.7%
  Thrombus weight: 14.4 ± 3.6 mg
[1]; at the same dose
  antithrombotic efficacy compared with dabigatran etexilate: basically equivalent
[5]; gavage 5 mg/kg, Female
  AUC0-t (h·ng/mL): 850+226 h·ng/mL
  AUC0-∞: 854 ± 224 ng·h/mL
  Cl/F: 104 ± 33 mL/min/kg
  Cmax: 522 ± 170 ng/mL
  MRT0-t: 1.6 ± 0.34 h
  MRT0-∞ (h): 1.7+0.38 h
  Tmax: 0.59 ± 0.29 h
  V2/F: 13.9 ± 6.75 L/kg
  t1/2: 1.5 ± 0.26 h
[5]; gavage 5 mg/kg, Male
  AUC0-t: 604 ± 182 ng·h/mL
  AUC0-∞: 606 ± 181 ng·h/mL
  Cl/F: 147 ± 41.7 mL/min/kg
  Cmax: 344 ± 163 ng/mL
  MRT0-t: 1.6 ± 0.20 h
  MRT0-∞: 1.7 ± 0.21 h
  Tmax: 0.66 ± 0.23 h
  V2/F: 18.1 ± 6.08 L/kg
  t1/2: 1.4 ± 0.32 h
[5]; gavage 5 mg/kg, Total
  AUC0-t: 727 ± 231 ng·h/mL
  AUC0-∞: 730 ± 231 ng·h/mL
  Cl/F: 126 ± 41.7 mL/min/kg
  Cmax: 433 ± 181 ng/mL
  MRT0-t: 1.6 ± 0.26 h
  MRT0-∞: 1.7 ± 0.28 h
  Tmax: 0.62 ± 0.24 h
  V2/F: 16.0 ± 6.37 L/kg
  t1/2: 1.5 ± 0.27 h
[5]; gavage 10 mg/kg, Female
  AUC0-t: 2060 ± 783 ng·h/mL
  AUC0-∞: 1830 ng·h/mL
  Cl/F: 92.3 mL/min/kg
  Cmax: 1120 ± 385 ng/mL
  MRT0-t: 1.6 ± 0.27 h
  MRT0-∞: 1.6 h
  Tmax: 0.75 ± 0.29 h
  V2/F: 20.1 L/kg
  t1/2: 2.6 h
[5]; gavage 10 mg/kg, Male
  AUC0-t: 1460 ± 324 ng·h/mL
  AUC0-∞: 1460 ± 324 ng·h/mL
  Cl/F: 118 ± 26.5 mL/min/kg
  Cmax: 934 ± 299 ng/mL
  MRT0-t: 1.6 ± 0.24 h
  MRT0-∞: 1.7 ± 0.20 h
  Tmax: 0.63 ± 0.25 h
  V2/F: 46.9 ± 24.6 L/kg
  t1/2: 4.5 ± 1.8 h
[5]; gavage 10 mg/kg, Total
  AUC0-t: 1760 ± 642 ng·h/mL
  AUC0-∞: 1590 ± 346 ng·h/mL
  Cl/F: 110 ± 25.5 mL/min/kg
  Cmax: 1030 ± 335 ng/mL
  MRT0-t: 1.6 ± 0.24 h
  MRT0-∞: 1.7 ± 0.26 h
  Tmax: 0.69 ± 0.26 h
  V2/F: 38.0 ± 23.6 L/kg
  t1/2: 3.9 ± 1.8 h
[5]; gavage 20 mg/kg, Female
  AUC0-t: 3840 ± 446 ng·h/mL
  AUC0-∞ (h·ng/mL): 3850+446 h·ng/mL
  Cl/F: 87.5 ± 10.2 mL/min/kg
  Cmax: 2170 ± 380 ng/mL
  MRT0-t (h): 1.7+0.19 h
  MRT0-∞: 1.8 ± 0.18 h
  Tmax: 0.50 ± 0.0 h
  V2/F: 30.8 ± 5.67 L/kg
  t1/2: 4.0 ± 0.35 h
[5]; gavage 20 mg/kg, Male
  AUC0-t (h·ng/mL): 4650+2440 h·ng/mL
  AUC0-∞: 4660 ± 2440 ng·h/mL
  Cl/F: 83 ± 29.8 mL/min/kg
  Cmax: 2230 ± 531 ng/mL
  MRT0-t: 1.8 ± 0.33 h
  MRT0-∞: 1.8 ± 0.32 h
  Tmax: 0.88 ± 0.25 h
  V2/F: 26.6 ± 17.0 L/kg
  t1/2: 3.7 ± 1.7 h
[5]; gavage 20 mg/kg, Total
  AUC0-t: 4250 ± 1680 ng·h/mL
  AUC0-∞: 4250 ± 1680 ng·h/mL
  Cl/F: 85.3 ± 20.8 mL/min/kg
  Cmax: 2200 ± 429 ng/mL
  MRT0-t: 1.8 ± 0.25 h
  MRT0-∞: 1.8 ± 0.25 h
  Tmax: 0.69 ± 0.26 h
  V2/F: 28.7 ± 11.9 L/kg
  t1/2: 3.9 ± 1.2 h
[4]; 80% RH
  water absorption (DVS): 28.8%
[4]; 90% humidity
  water absorption (DVS): 49.9%
[4]; after DVS test
  solid form after DVS test: converted to amorphous form
[4]; high humidity
  behaviour of the sample at high humidity (DVS): undergoes deliquescence
[4]
  Hygroscopicity: Hygroscopic
[2]; level of compound V after oral 2.5 mg/kg Form I, 2.5 mg/kg
  Blood drug level: 190.1 ng/mL
[2]; level of compound V after oral 2.5 mg/kg Form I, listed as Crystal form I, 2.5 mg/kg
  Blood drug level: 190.1 ± 62.9 ng/mL
[2]; level of compound V after oral 5 mg/kg Form I, 5 mg/kg
  Blood drug level: 181.3 ng/mL
[2]; level of compound V after oral 10 mg/kg Form I, 10 mg/kg
  Blood drug level: 341.9 ng/mL
[2]; level of compound V after oral 10 mg/kg Form I, listed as Crystal form I, 10 mg/kg
  Blood drug level: 341.9 ± 46.4 ng/mL
[2]; level of compound V after oral 20 mg/kg Form I, 20 mg/kg
  Blood drug level: 609.7 ng/mL
[2]; level of compound V after oral 20 mg/kg Form I, listed as Crystal form I, 20 mg/kg
  Blood drug level: 609.7 ± 174.0 ng/mL
[6]; 0 month
  Content (HPLC): 99.6%
  Hydrolyzed impurities: 0.19%
  Moisture: 0.4%
  Other individual impurities: <RL(0.05%)
  Total impurities: 0.42%
[6]; 1 month
  Content (HPLC): 99.3%
  Hydrolyzed impurities: 0.27%
  Moisture: 0.5%
  Other individual impurities: <RL(0.05%)
  Total impurities: 0.54%
[6]; 2 months
  Content (HPLC): 100.3%
  Hydrolyzed impurities: 0.28%
  Moisture: 0.3%
  Other individual impurities: <RL(0.05%)
  Total impurities: 0.56%
[6]; 3 months
  Content (HPLC): 100.3%
  Hydrolyzed impurities: 0.45%
  Moisture: 0.4%
  Other individual impurities: <RL(0.05%)
  Total impurities: 0.72%
[6]; 6 months
  Content (HPLC): 99.6%
  Hydrolyzed impurities: 0.51%
  Moisture: 0.3%
  Other individual impurities: <RL(0.05%)
  Total impurities: 1.02%
